Tests used:
[1] = Second PK study: daily oral dose for 5 days, two formulations; assay type: in vivo, female Swiss Albino mice; conditions: for AUC(0-t): AUC0-24 h
Protocol: In a second study female Swiss Albino mice were administered daily oral dose of 5, 7.5, or 10 mg/kg of the compound of formula (I) for 5 days. […] PK samples were collected on day 5 for groups 1 to 6. Formulation 1 consisted of DMSO, cremophor EL, and 5% mannitol in water (10/10/80; v/v/v). Formulation 2 consisted of ethanol, PEG 400, and citric acid 20 mM (10/10/80; v/v/v). […] In each of the three studies blood was collected via the sephanous vein into K2-EDTA tubes kept on ice until centrifugation at 4° C. Plasma was stored at ap-proximately-80° C. […] PK parameters were calculated using Phoenix® WinNonLin 6.4. PK analysis was based on sparse sampling.

[2] = First PK study: single oral dose, two formulations; assay type: in vivo, female Swiss Albino mice; conditions: for Tmax / bioavailability / AUC(0-inf) / AUC(0-t) / Cmax / half-life: Swiss Albino, mouse, plasma; for bioavailability: based on i.v. exposure; for AUC(0-t): AUC0-24 h; for Cmax: mean (SD); for half-life: read-out: Apparent T1/2 (converted)
Protocol: Plasma samples were collected on day 1 for Groups 1 to 6. Formulation 1 consisted of DMSO, cremophor EL, and 5% mannitol in water (10/10/80; v/v/v). Formulation 2 consisted of ethanol, PEG 400, and citric acid 20 mM (10/10/80; v/v/v). […] In each of the three studies blood was collected via the sephanous vein into K2-EDTA tubes kept on ice until centrifugation at 4° C. Plasma was stored at ap-proximately-80° C. […] PK parameters were calculated using Phoenix® WinNonLin 6.4. PK analysis was based on sparse sampling.

[3] = Maximum tolerated dose (MTD) in mice; conditions: mouse, in vivo
[4] = system: tumor patient-derived xenografts (PDX), including TNBC and hepatocellular cancer (HCC) models; assay: Patient-derived xenografts (PDX) in mice; assay type: in vivo; conditions: data not shown
[5] = day 5, daily oral 5 mg/kg, Formulation 1, female mice
[6] = day 5, daily oral 5 mg/kg, Formulation 2, female mice
[7] = day 5, daily oral 7.5 mg/kg, Formulation 1, female mice
[8] = day 5, daily oral 7.5 mg/kg, Formulation 2, female mice
[9] = day 5, daily oral 10 mg/kg, Formulation 1, female mice
[10] = day 5, daily oral 10 mg/kg, Formulation 2, female mice
[11] = female, Swiss Albino, mouse, plasma, po, 5 mg/kg, day 5, daily oral 5 mg/kg, Formulation 1, female mice
[12] = female, Swiss Albino, mouse, plasma, po, 5 mg/kg, day 5, daily oral 5 mg/kg, Formulation 2, female mice
[13] = female, Swiss Albino, mouse, plasma, po, 7.5 mg/kg, day 5, daily oral 7.5 mg/kg, Formulation 1, female mice
[14] = female, Swiss Albino, mouse, plasma, po, 7.5 mg/kg, day 5, daily oral 7.5 mg/kg, Formulation 2, female mice
[15] = female, Swiss Albino, mouse, plasma, po, 10 mg/kg, day 5, daily oral 10 mg/kg, Formulation 1, female mice
[16] = female, Swiss Albino, mouse, plasma, po, 10 mg/kg, day 5, daily oral 10 mg/kg, Formulation 2, female mice
[17] = female, po, 5 mg/kg, single oral 5 mg/kg, Formulation 1, female mice
[18] = female, po, 5 mg/kg, single oral 5 mg/kg, Formulation 2, female mice
[19] = female, po, 7.5 mg/kg, single oral 7.5 mg/kg, Formulation 1, female mice
[20] = female, po, 7.5 mg/kg, single oral 7.5 mg/kg, Formulation 2, female mice
[21] = female, po, 10 mg/kg, single oral 10 mg/kg, Formulation 1, female mice
[22] = female, po, 10 mg/kg, single oral 10 mg/kg, Formulation 2, female mice
[23] = single oral 5 mg/kg, Formulation 1, female mice
[24] = single oral 5 mg/kg, Formulation 2, female mice
[25] = single oral 7.5 mg/kg, Formulation 1, female mice
[26] = single oral 7.5 mg/kg, Formulation 2, female mice
[27] = single oral 10 mg/kg, Formulation 1, female mice
[28] = single oral 10 mg/kg, Formulation 2, female mice

## COc1cc(N2CCNCC2)ccc1Nc1ncc2c(n1)-n1ccc(C(=O)Nc3c(C)cccc3C)c1CC2 [compound of formula (I)]
[1]; Swiss Albino, mouse, plasma, day 5, daily oral 5 mg/kg, Formulation 1, female mice, read-out: Tmax
  Tmax: 2 h
[1]; Swiss Albino, mouse, plasma, day 5, daily oral 7.5 mg/kg, Formulation 1, female mice, read-out: Tmax
  Tmax: 4 h
[1]; Swiss Albino, mouse, plasma, day 5, daily oral 10 mg/kg, Formulation 1, female mice, read-out: Tmax
  Tmax: 4 h
[1]; [5]
  % extrapolated: 8.33%
  AUCinf/Dose: 81.6 ng·h/mL/mg/kg
  AUClast/Dose: 74.8 (h*ng/mL)/(mg/kg)
  Cmax/Dose: 5.16 (ng/mL)/(mg/kg)
[1]; [6]
  % extrapolated: 1.53%
  AUCinf/Dose: 116 ng·h/mL/mg/kg
  AUClast/Dose: 114 (h*ng/mL)/(mg/kg)
  Cmax/Dose: 9.48 (ng/mL)/(mg/kg)
[1]; [7]
  % extrapolated: 5.04%
  AUCinf/Dose: 50 ng·h/mL/mg/kg
  AUClast/Dose: 47.5 (h*ng/mL)/(mg/kg)
  Cmax/Dose: 6.03 (ng/mL)/(mg/kg)
[1]; [8]
  % extrapolated: 1.77%
  AUCinf/Dose: 82.4 ng·h/mL/mg/kg
  AUClast/Dose: 80.9 (h*ng/mL)/(mg/kg)
  Cmax/Dose: 8.36 (ng/mL)/(mg/kg)
[1]; [9]
  % extrapolated: 7.41%
  AUCinf/Dose: 60.8 ng·h/mL/mg/kg
  AUClast/Dose: 56.3 (h*ng/mL)/(mg/kg)
  Cmax/Dose: 4.01 (ng/mL)/(mg/kg)
[1]; [10]
  % extrapolated: 12.7%
  AUCinf/Dose: 87 ng·h/mL/mg/kg
  AUClast/Dose: 76 (h*ng/mL)/(mg/kg)
  Cmax/Dose: 5.65 (ng/mL)/(mg/kg)
[1]; female, Swiss Albino, mouse, plasma, oral, multiple daily dose administration, based on i.v. exposure, read-out: oral bioavailability
  bioavailability: 18 to 41%
[1]; [11]
  AUC(0-inf): 408 ng·h/mL
  Cmax: 25.8 ng/mL
  AUC(0-t): 374 ng·h/mL
[1]; female, Swiss Albino, mouse, plasma, po, 5 mg/kg, day 5, daily oral 5 mg/kg, Formulation 1, female mice, based on iv exposure, read-out: F (%)
  bioavailability: 29%
[1]; female, Swiss Albino, mouse, plasma, po, 5 mg/kg, day 5, daily oral 5 mg/kg, Formulation 1, female mice, read-out: Apparent T1/2 (converted)
  half-life at 5 days: 7.8 h
[1]; [12]
  AUC(0-inf): 579 ng·h/mL
  Cmax: 47.4 ng/mL
  AUC(0-t): 570 ng·h/mL
[1]; female, Swiss Albino, mouse, plasma, po, 5 mg/kg, day 5, daily oral 5 mg/kg, Formulation 2, female mice, based on iv exposure, read-out: F (%)
  bioavailability: 41%
[1]; female, Swiss Albino, mouse, plasma, po, 5 mg/kg, day 5, daily oral 5 mg/kg, Formulation 2, female mice, read-out: Apparent T1/2 (converted)
  half-life: 4.02 h
[1]; [13]
  AUC(0-inf): 375 ng·h/mL
  Cmax: 45.2 ng/mL
  AUC(0-t): 356 ng·h/mL
[1]; female, Swiss Albino, mouse, plasma, po, 7.5 mg/kg, day 5, daily oral 7.5 mg/kg, Formulation 1, female mice, based on iv exposure, read-out: F (%)
  bioavailability: 18%
[1]; female, Swiss Albino, mouse, plasma, po, 7.5 mg/kg, day 5, daily oral 7.5 mg/kg, Formulation 1, female mice, read-out: Apparent T1/2 (converted)
  half-life: 5.31 h
[1]; [14]
  AUC(0-inf): 618 ng·h/mL
  Cmax: 62.7 ng/mL
  AUC(0-t): 607 ng·h/mL
[1]; female, Swiss Albino, mouse, plasma, po, 7.5 mg/kg, day 5, daily oral 7.5 mg/kg, Formulation 2, female mice, based on iv exposure, read-out: F (%)
  bioavailability: 29%
[1]; female, Swiss Albino, mouse, plasma, po, 7.5 mg/kg, day 5, daily oral 7.5 mg/kg, Formulation 2, female mice, read-out: Apparent T1/2 (converted)
  half-life: 3.79 h
[1]; [15]
  AUC(0-inf): 608 ng·h/mL
  Cmax: 40.1 ng/mL
  AUC(0-t): 563 ng·h/mL
[1]; female, Swiss Albino, mouse, plasma, po, 10 mg/kg, day 5, daily oral 10 mg/kg, Formulation 1, female mice, based on iv exposure, read-out: F (%)
  bioavailability: 22%
[1]; female, Swiss Albino, mouse, plasma, po, 10 mg/kg, day 5, daily oral 10 mg/kg, Formulation 1, female mice, read-out: Apparent T1/2 (converted)
  half-life: 5.81 h
[1]; [16]
  AUC(0-inf): 870 ng·h/mL
  Cmax: 56.5 ng/mL
  AUC(0-t): 760 ng·h/mL
[1]; female, Swiss Albino, mouse, plasma, po, 10 mg/kg, day 5, daily oral 10 mg/kg, Formulation 2, female mice, based on iv exposure, read-out: F (%)
  bioavailability: 31%
[1]; female, Swiss Albino, mouse, plasma, po, 10 mg/kg, day 5, daily oral 10 mg/kg, Formulation 2, female mice, read-out: Apparent T1/2 (converted)
  half-life: 7.66 h
[1]; female, Swiss Albino, mouse, plasma, day 5 of daily oral administration, read-out: median Tmax
  Tmax: 2 to 4 h
[2]; single oral 5 mg/kg, Formulation 1, female mice, read-out: Tmax
  Tmax: 4 h
[2]; single oral 7.5 mg/kg, Formulation 1, female mice, read-out: Tmax
  Tmax: 4 h
[2]; single oral 10 mg/kg, Formulation 1, female mice, read-out: Tmax
  Tmax: 4 h
[2]; female, oral, single dose administration, read-out: oral bioavailability
  bioavailability: 76 to 96%
[2]; [17]
  AUC(0-inf): 1100 ng·h/mL
  AUC(0-t): 1080 ng·h/mL
  Cmax: 108 ng/mL
  half-life: 3.27 h
[2]; female, po, 5 mg/kg, single oral 5 mg/kg, Formulation 1, female mice, read-out: F (%)
  bioavailability: 76%
[2]; [18]
  AUC(0-inf): 1130 ng·h/mL
  AUC(0-t): 1120 ng·h/mL
  Cmax: 103 ng/mL
  half-life: 3.29 h
[2]; female, po, 5 mg/kg, single oral 5 mg/kg, Formulation 2, female mice, read-out: F (%)
  bioavailability: 78%
[2]; [19]
  AUC(0-inf): 1660 ng·h/mL
  AUC(0-t): 1650 ng·h/mL
  Cmax: 164 ng/mL
  half-life: 3.23 h
[2]; female, po, 7.5 mg/kg, single oral 7.5 mg/kg, Formulation 1, female mice, read-out: F (%)
  bioavailability: 77%
[2]; [20]
  AUC(0-inf): 1910 ng·h/mL
  AUC(0-t): 1880 ng·h/mL
  Cmax: 172 ng/mL
  half-life: 3.51 h
[2]; female, po, 7.5 mg/kg, single oral 7.5 mg/kg, Formulation 2, female mice, read-out: F (%)
  bioavailability: 88%
[2]; [21]
  AUC(0-inf): 2480 ng·h/mL
  AUC(0-t): 2430 ng·h/mL
  Cmax: 210 ng/mL
  half-life: 3.66 h
[2]; female, po, 10 mg/kg, single oral 10 mg/kg, Formulation 1, female mice, read-out: F (%)
  bioavailability: 86%
[2]; [22]
  AUC(0-inf): 2770 ng·h/mL
  AUC(0-t): 2730 ng·h/mL
  Cmax: 276 ng/mL
  half-life: 3.43 h
[2]; female, po, 10 mg/kg, single oral 10 mg/kg, Formulation 2, female mice, read-out: F (%)
  bioavailability: 96%
[2]; female, single oral administration, 5-10 mg/kg, both formulations, read-out: median Tmax
  Tmax: 4 h
[2]; [23]
  % extrapolated: 1.11%
  AUCinf/Dose: 220 ng·h/mL/mg/kg
  AUClast/Dose: 216 (h*ng/mL)/(mg/kg)
  Cmax/Dose: 21.6 (ng/mL)/(mg/kg)
[2]; [24]
  % extrapolated: 1.14%
  AUCinf/Dose: 226 ng·h/mL/mg/kg
  AUClast/Dose: 224 (h*ng/mL)/(mg/kg)
  Cmax/Dose: 20.6 (ng/mL)/(mg/kg)
[2]; [25]
  % extrapolated: 1.06%
  AUCinf/Dose: 221 ng·h/mL/mg/kg
  AUClast/Dose: 220 (h*ng/mL)/(mg/kg)
  Cmax/Dose: 21.9 (ng/mL)/(mg/kg)
[2]; [26]
  % extrapolated: 1.67%
  AUCinf/Dose: 255 ng·h/mL/mg/kg
  AUClast/Dose: 251 (h*ng/mL)/(mg/kg)
  Cmax/Dose: 22.9 (ng/mL)/(mg/kg)
[2]; [27]
  % extrapolated: 1.9%
  AUCinf/Dose: 248 ng·h/mL/mg/kg
  AUClast/Dose: 243 (h*ng/mL)/(mg/kg)
  Cmax/Dose: 21 (ng/mL)/(mg/kg)
[2]; [28]
  % extrapolated: 1.47%
  AUCinf/Dose: 277 ng·h/mL/mg/kg
  AUClast/Dose: 273 (h*ng/mL)/(mg/kg)
  Cmax/Dose: 27.6 (ng/mL)/(mg/kg)
[3]; iv, 2QW
  MTD: 12.5 mg/kg
[3]; iv, QW
  MTD: 25 mg/kg
[3]; po, orally daily
  MTD: 7.5 mg/kg
[4]
  activity against PDX: significant activity
